Source: patent publication US10087187B2, “Imidazopyridazine derivatives as PI3KB inhibitors” (Janssen Pharmaceutica NV, priority 2014, dated 2018)
Read-outs that look alike come from different tables or passages of the source.

Key:
PIK3Cα_h = PIK3Cα_h (Homo sapiens (Human), UniProt P42336); test: KINOMEscan enzyme binding assay, PIK3Cα; conditions: DiscoveRx
Procedure: (§1) Enzyme Binding Assays (KINOMEscan®) Kinase enzyme binding affinities of compounds disclosed herein were determined using the KINOMEscan technology performed by DiscoveRx Corporation, San Diego, Calif., USA (www.kinomescan.com).

MTOR_h = MTOR_h (Homo sapiens (Human), UniProt P42345); test: KINOMEscan enzyme binding assay, MTOR; conditions: DiscoveRx
Procedure: as §1

PIK3Cβ_h = PIK3Cβ_h (Homo sapiens (Human), UniProt P42338); test: KINOMEscan enzyme binding assay, PIK3Cβ; conditions: DiscoveRx
Procedure: (§2) Enzyme Binding Assays (KINOMEscan®) Kinase enzyme binding affinities of compounds disclosed herein were determined using the KINOMEscan technology performed by DiscoveRx Corporation, San Diego, Calif., USA (www.kinomescan.com). Table A reports the obtained Kd values (nM), with the Kd being the inhibitor binding constant: […]

PIK3Cγ_h = PIK3Cγ_h (Homo sapiens (Human), UniProt P48736); test: KINOMEscan enzyme binding assay, PIK3Cγ; conditions: DiscoveRx
Procedure: as §1

[1] = test system: Akt phosphorylated at Ser473 in PC-3 cells; test: Cellular assay: phosphorylation of Akt (Ser473) in PC-3 cells, MSD ELISA; format: cell-based; conditions: 60 min incubation with compound, read-out: IC50 pAkt_S473
Procedure: (§3) Cellular activity of PI3Kβ inhibitors was determined by quantifying the phosphorylation of Akt in PC-3 cells. Akt phosphorylated at Ser473 and Thr308 were measured using an enzyme-linked immunosorbent assay (ELISA; Meso Scale Discovery (MSD), Gaithersburg, Md.) and specific primary antibodies from MSD.
(§4) On day 1, PC3 cells (ATCC # […]) were seeded into PerkinElmer MW96 plates at 25.000 cells per well, in 75 μl complete culture medium (DMEM (Dulbecco's Modified Eagle's Medium) high glucose, AQmedia™, D0819, Sigma-Aldrich) containing 10% heat inactivated FCS (Fetal Bovine Serum) and incubated at 37° C., 5% CO2 during 24 hours. On day 2, compound or DMSO (dimethyl sulfoxide) (0.3%) was added and cells were further incubated for 60 min at 37° C., 5% CO2 in a total volume of 100 μl of medium.
(§5) The phosphoprotein assay was executed according to vendor instructions in the Phospho-Akt (Ser473) Assay Whole Cell Lysate Kit (MSD # K15100D-3) and the Phospho-Akt (Thr308) Assay Whole Cell Lysate Kit (MSD # K151DYD-3) using the lysis, blocking and wash buffer provided.
(§6) Briefly, at the end of the cell treatment period, media were removed by aspiration and adherent cells were lysed in 50 μl ice-cold lysis buffer. MSD plates are supplied pre-coated with capture antibodies for Phospho-Akt (Ser473 and Thr308). After blocking, lysates from tissue culture plates were added and plates were washed. Then, a solution containing the detection antibody (anti-total Akt conjugated with an electrochemiluminescent compound-MSD Sulfo-tag label) was added. The signals were detected using an MSD SECTOR Imager 6000 and are proportional to the phospho-Akt titres.
(§7) Data were processed. The percentage of inhibition was plotted against the log concentration of test compounds, and the sigmoidal log concentration-effect curve of best fit was calculated by nonlinear regression analysis. From these concentration-response curves, the IC50 values were calculated. Five concentrations were used for curve fitting.

PIK3Cδ_h = PIK3Cδ_h (Homo sapiens (Human), UniProt O00329); test: KINOMEscan enzyme binding assay, PIK3Cδ; conditions: DiscoveRx
Procedure: as §2

[2] = test system: Akt phosphorylated at Thr308 in PC-3 cells; test: Cellular assay: phosphorylation of Akt (Thr308) in PC-3 cells, MSD ELISA; format: cell-based; conditions: 60 min incubation with compound, read-out: IC50 pAkt_Thr308
Procedure: as §3, §4, §5, §6, §7

Chain of PIK3Cγ_h (P48736 whole entry): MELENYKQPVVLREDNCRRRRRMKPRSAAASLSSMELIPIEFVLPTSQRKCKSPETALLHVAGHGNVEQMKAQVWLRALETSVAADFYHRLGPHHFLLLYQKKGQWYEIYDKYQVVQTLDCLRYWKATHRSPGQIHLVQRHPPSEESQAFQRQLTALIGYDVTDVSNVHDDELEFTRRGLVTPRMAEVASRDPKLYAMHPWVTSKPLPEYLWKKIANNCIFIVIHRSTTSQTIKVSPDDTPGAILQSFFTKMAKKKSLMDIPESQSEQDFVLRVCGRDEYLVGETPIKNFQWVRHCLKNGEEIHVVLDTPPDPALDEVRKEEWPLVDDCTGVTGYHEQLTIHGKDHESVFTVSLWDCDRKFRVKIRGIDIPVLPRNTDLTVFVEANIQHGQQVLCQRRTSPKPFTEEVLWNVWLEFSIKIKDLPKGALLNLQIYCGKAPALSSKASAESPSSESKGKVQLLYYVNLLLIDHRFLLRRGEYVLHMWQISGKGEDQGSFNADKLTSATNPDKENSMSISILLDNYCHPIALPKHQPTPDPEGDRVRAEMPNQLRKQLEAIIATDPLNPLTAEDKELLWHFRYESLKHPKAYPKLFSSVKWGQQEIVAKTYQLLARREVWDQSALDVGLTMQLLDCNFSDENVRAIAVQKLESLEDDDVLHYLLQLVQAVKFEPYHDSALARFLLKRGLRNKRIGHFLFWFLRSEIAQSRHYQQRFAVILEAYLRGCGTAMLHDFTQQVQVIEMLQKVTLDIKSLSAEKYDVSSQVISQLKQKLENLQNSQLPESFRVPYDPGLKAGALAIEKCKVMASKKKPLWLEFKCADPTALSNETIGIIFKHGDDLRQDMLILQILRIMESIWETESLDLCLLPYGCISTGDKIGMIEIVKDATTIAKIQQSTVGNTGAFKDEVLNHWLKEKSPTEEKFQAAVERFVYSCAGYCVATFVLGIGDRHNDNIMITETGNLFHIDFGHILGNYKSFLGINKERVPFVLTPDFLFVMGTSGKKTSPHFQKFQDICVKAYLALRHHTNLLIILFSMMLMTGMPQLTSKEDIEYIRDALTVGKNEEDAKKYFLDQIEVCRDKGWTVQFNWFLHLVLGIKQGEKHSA
Chain of PIK3Cα_h (P42336 whole entry): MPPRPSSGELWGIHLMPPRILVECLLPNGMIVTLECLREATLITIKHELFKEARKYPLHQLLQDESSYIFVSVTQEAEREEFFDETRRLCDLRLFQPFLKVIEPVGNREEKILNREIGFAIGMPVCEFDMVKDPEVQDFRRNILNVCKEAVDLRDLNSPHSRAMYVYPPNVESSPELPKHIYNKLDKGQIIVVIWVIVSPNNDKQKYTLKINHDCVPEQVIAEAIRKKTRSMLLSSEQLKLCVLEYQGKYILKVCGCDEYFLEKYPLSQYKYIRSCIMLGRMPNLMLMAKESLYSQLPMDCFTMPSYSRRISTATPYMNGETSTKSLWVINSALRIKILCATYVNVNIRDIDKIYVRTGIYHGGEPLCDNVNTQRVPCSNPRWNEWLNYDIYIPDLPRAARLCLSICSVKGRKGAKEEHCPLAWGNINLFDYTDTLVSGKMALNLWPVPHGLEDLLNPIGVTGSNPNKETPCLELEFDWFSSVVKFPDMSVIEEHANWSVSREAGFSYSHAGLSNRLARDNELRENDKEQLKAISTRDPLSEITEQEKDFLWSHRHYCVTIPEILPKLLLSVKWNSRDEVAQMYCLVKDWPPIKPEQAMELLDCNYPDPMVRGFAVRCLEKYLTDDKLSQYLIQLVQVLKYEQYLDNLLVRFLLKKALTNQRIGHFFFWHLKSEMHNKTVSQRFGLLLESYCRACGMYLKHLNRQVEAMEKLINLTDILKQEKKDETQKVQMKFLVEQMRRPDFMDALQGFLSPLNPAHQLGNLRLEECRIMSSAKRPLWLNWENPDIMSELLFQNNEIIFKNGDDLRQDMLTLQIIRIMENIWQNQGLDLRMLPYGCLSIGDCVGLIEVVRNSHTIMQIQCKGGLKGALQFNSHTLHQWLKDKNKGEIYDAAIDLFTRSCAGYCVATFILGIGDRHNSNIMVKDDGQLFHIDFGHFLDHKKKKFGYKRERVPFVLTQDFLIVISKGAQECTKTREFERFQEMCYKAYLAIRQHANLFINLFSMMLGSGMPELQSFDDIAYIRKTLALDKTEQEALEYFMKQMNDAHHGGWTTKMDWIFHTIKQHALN
Chain of PIK3Cβ_h (P42338 whole entry): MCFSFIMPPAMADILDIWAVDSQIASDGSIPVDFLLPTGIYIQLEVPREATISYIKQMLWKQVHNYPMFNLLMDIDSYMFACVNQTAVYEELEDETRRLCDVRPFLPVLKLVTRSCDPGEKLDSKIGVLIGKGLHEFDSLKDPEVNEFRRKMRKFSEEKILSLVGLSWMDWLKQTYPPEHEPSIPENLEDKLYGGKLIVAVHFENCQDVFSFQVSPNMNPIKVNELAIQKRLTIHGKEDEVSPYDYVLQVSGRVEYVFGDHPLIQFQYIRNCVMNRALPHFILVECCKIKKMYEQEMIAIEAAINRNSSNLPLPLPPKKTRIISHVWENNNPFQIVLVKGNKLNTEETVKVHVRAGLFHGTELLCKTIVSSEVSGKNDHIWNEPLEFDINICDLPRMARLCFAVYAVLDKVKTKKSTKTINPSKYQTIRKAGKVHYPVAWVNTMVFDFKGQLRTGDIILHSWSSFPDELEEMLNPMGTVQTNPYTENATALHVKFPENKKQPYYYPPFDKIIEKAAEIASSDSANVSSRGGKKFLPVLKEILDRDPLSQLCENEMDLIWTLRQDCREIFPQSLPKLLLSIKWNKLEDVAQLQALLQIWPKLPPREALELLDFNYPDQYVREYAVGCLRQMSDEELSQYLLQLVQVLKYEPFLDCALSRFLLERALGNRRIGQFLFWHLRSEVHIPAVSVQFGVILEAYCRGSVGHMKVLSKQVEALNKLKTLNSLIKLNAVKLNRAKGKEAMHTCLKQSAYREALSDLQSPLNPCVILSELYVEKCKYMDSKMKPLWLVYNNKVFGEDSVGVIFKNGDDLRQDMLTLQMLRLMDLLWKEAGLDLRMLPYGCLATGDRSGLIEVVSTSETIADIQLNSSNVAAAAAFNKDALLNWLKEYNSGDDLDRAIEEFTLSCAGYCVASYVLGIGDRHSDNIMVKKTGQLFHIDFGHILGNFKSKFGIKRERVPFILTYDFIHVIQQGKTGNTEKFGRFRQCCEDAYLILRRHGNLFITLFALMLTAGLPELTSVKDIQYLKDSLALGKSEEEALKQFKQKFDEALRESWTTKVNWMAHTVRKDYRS
Chain of PIK3Cδ_h (O00329 whole entry): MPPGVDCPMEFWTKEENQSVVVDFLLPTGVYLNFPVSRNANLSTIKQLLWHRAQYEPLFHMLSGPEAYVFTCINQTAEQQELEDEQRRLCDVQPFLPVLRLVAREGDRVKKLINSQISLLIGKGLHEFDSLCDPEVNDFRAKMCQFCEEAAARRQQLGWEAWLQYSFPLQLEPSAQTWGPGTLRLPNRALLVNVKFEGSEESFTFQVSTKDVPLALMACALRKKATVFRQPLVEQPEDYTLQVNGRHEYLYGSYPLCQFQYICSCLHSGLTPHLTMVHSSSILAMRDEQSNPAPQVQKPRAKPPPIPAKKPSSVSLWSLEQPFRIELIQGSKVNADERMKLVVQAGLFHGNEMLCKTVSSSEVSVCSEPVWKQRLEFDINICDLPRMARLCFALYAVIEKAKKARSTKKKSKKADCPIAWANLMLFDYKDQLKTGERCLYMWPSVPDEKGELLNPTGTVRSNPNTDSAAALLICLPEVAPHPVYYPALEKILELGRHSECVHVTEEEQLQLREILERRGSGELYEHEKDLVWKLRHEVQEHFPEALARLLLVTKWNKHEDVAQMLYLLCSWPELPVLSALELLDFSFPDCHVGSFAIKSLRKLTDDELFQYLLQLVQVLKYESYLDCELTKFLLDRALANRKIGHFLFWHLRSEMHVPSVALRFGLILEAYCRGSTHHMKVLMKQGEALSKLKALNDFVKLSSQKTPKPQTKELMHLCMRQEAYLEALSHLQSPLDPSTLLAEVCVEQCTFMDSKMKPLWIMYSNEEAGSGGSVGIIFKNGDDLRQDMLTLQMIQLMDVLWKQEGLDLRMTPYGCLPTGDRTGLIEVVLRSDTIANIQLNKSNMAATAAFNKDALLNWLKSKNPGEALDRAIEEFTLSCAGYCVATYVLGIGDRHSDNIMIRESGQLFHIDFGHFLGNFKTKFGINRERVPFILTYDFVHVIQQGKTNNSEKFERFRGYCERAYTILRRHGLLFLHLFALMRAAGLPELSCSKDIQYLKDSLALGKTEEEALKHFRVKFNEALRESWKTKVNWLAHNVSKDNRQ

| Structure (SMILES) | Kd (PIK3Cα_h) [µM] | Kd (MTOR_h) [µM] | Kd (PIK3Cβ_h) [µM] | Kd (PIK3Cγ_h) [µM] | IC50 ([1]; Homo sapiens, PC-3, 1 h) [µM] | Kd (PIK3Cδ_h) [µM] | IC50 ([2]; Homo sapiens, PC-3, 1 h) [µM] | IC50 [1] [µM] | IC50 [2] [µM] |
| --- | --- | --- | --- | --- | --- | --- | --- | --- | --- |
| Cc1c(Cc2c(CF)nc3c(N)cc(N4CCOCC4)nn23)cccc1C(F)(F)F [Compound 17] | 17 | 14.1 | 0.0033 | 15.8 | 0.081 | 0.427 | ~0.05 |  |  |
| Cc1nc2c(N)cc(N3CCOCC3)nn2c1Cc1cccc(C(F)(F)F)c1C [Compound 6] | > 30.2 | > 30.2 | 0.005 | > 30.2 | 0.123 | 0.955 | ~0.085 |  |  |
| Cc1nc2c(N)cc(N3CCOCC3)nn2c1Cc1cccc(F)c1C1CCN(CCO)CC1 [Compound 107] | 11.7 | 11.5 | 0.012 | 8.71 | 0.158 | 0.355 | 0.115 |  |  |
| Cc1c(F)cccc1Cc1c(CNCCO)nc2c(N)cc(N3CCOCC3)nn12 [Compound 97] | 11.2 | 0.912 | 0.0016 | 3.71 | 0.079 | 0.2 | 0.04 |  |  |
| Cc1nc2c(C(N)=O)cc(N3CCOCC3)nn2c1Cc1cccc(Cl)c1C [Compound 11] | 2.69 | 22.4 | 0.021 | 6.92 | ~0.158 | 0.955 | 0.355 |  |  |
| Cc1nc2c(C(=O)O)cc(N3CCOC(C)C3)nn2c1Cc1cccc(C(F)(F)F)c1C (centres unmarked) [Compound 28] | 2.09 | 21.4 | 0.0025 | 5.5 | ~0.407 | 0.083 | 0.38 |  |  |
| Cc1c(Cc2c(C(C)O)nc3c(-c4c[nH]cn4)cc(N4CCOCC4)nn23)cccc1C(F)(F)F (centres unmarked) [Compound 30] | 1.18 | 2.19 | 0.0026 | 4.57 | 0.059 | 0.129 | ~0.042 |  |  |
| Cc1nc2c(N)cc(N3CCOCC3)nn2c1Nc1cccc(C(F)(F)F)c1CN1CCC(S(C)(=O)=O)C1 (centres unmarked) [Compound 47] | 10.5 | > 30.2 | 0.0025 | 20.9 | 0.059 | 0.047 | 0.044 |  |  |
| Cc1c(Cc2c(CNCCS(C)(=O)=O)nc3c(N)cc(N4CCOCC4)nn23)cccc1C(F)(F)F [Compound 2] | 8.13 | 23.4 | 0.0014 | > 30.2 | 0.138 | 0.178 | 0.186 |  |  |
| Cc1c(Cc2c(CCO)nc3c(-c4c[nH]cn4)cc(N4CCOCC4)nn23)cccc1C(F)(F)F [Compound 24] | 1.11 | 2.49 | 0.003 | 3.36 | 0.043 | 0.147 | 0.037 |  |  |
| Cc1nc2c(N)cc(N3CCOCC3)nn2c1Cc1cccc2c1CNCC2 [Compound 109] | 12.8 | 22.2 | 0.009 | 2.9 | 0.136 | 0.098 | 0.082 |  |  |
| Cc1nc2c(C(=O)O)cc(C3=CCOCC3)nn2c1Cc1cccc(C(F)(F)F)c1C [Compound 29] | 3.39 | > 30.2 | 0.007 | 12.3 | > 0.513 | 0.2 | ~0.513 |  |  |
| Cc1c(Cc2c(C(O)CN)nc3c(N)cc(N4CCOCC4)nn23)cccc1C(F)(F)F (centres unmarked) [Compound 91] | 8.91 | 0.776 | 0.0011 | 8.13 | > 0.513 | 0.148 | > 0.513 |  |  |
| Cc1nc2c(N)cc(N3CCOCC3)nn2c1Cc1cccc(F)c1CO [Compound 94] | 16.6 | 5.75 | 0.018 | 10.5 | > 0.513 | 1.41 | 0.417 |  |  |
| Cc1c(Cc2c(CO)nc3c(-c4c[nH]cn4)cc(N4CCOC(C)C4)nn23)cccc1C(F)(F)F (centres unmarked) [Compound 25] | > 30.2 | 1.18 | 0.2 | > 30.2 |  | > 30.2 |  | 0.447 | > 0.513 |
| Cc1nc2c(N)cc(N3CCOCC3)nn2c1Nc1cccc(C(F)(F)F)c1C [Compound 33] | 5.13 | 20.3 | 0.006 | 11.4 | 0.012 | 0.171 | 0.017 |  |  |
| CCC(C)C(N)C(=O)OCc1nc2c(N)cc(N3CCOCC3)nn2c1Cc1cccc(C(F)(F)F)c1C (centres unmarked) [Compound 81] | 26.9 | > 30.2 | 0.005 | > 30.2 | > 0.513 | 0.724 | 0.282 |  |  |
| Nc1cc(N2CCOCC2)nn2c(Cc3cccc(C(F)(F)F)c3C3CCNCC3)c(CO)nc12 [Compound 104] | 9.33 | > 30.2 | 0.0007 | 15.1 | 0.078 | 0.138 | 0.029 |  |  |
| Cc1c(Cc2c(CO)nc3c(-c4ccn[nH]4)cc(N4CCOCC4)nn23)cccc1C(F)(F)F [Compound 21] | 1.58 | 0.178 | 0.009 | 0.617 | 0.148 | 0.24 | 0.05 |  |  |
| Cc1c(Cc2c(CNCCO)nc3c(-c4ncc[nH]4)cc(N4CCOCC4)nn23)cccc1C(F)(F)F [Compound 4] | 0.933 | > 3.31 | 0.0033 | 1.15 | ~0.135 | 0.074 | ~0.12 |  |  |
